The text below walks through data of patent USRE37302E, “Peptide” (Novo Nordisk A/S, priority 1992, dated 2001).

Entries after “also recorded” stand apart in the source; their conditions may differ. Where no end group is shown, it is not given here.

The test system of test [1] is patients with NIDDM and secondary failure to sulfonylurea treatment. The test is described as follows: Basal state and meal test in NIDDM patients with secondary failure to sulfonylurea treatment (Example 2). Particulars: for Insulinogenic index: after ingestion of the meal, integrated insulin/integrated glucose response; for Blood glucose: 45 minutes after start of administration, glibenclamide 1 mg i.v., GLP-1(7-36)amide 0.75 pmol/kg/min. In kind it is in vivo, human.

The subject of test [2] is insulin treated obese NIDDM patients. The test is described as follows: Meal test in insulin treated obese NIDDM patients (Example 1). In kind it is in vivo, human. The settings on record: meal-related, glibenclamide 1 mg i.v., GLP-1(7-36)amide infusion 0.75 pmol/kg/min for 210 min, 6 NIDDM patients.
For test [3], the system named is isolated precultured rat pancreatic islets. The settings on record: in the presence of glucose; cited from earlier work.
In test [4] the test system is diabetic as well as nondiabetic subjects. Particulars: diabetic and nondiabetic subjects; cited from earlier work.

As to `COc1ccc(Cl)cc1C(=O)NCCc1ccc(S(=O)(=O)NC(=O)NC2CCCCC2)cc1` [glibenclamide], the Insulinogenic index in test [1] is listed as 10.6 ± 2.8. The same compound displayed a Blood glucose in test [1] (basal state) of 6.0 ± 0.3 mmol/L. Further, the “effect on blood glucose and C-peptide levels” value in test [1] (basal state, in words) is reported as “no significant effect on its own”. Further, the Glucagon response result in test [2] is on record as “no significant influence on glucagon release; also recorded: no significant effect”.
On to “GLP-1(1-36)amide (HDEFERHAEGTFTSDVSSYLEGQAAKEFIAWLVKGR-NH2; UniProt P01275 92-127, looked up, fragment) [amide of the GLP-1 fragment comprising amino acid residues 1 to 36]”, for which, in test [3], the insulin release result is on record as “stimulates insulin release”.
GLP-1(7-36)amide had an Insulinogenic index in test [1] of 21.0 ± 7.2. The compound further yielded a Blood glucose in test [1] (basal state) of 5.1 ± 0.4 mmol/L. The Glucagon response is on record as 10451 ± 5126 pg/ml/210 min in test [2] and “suppressed the glucagon response” in test [2] (listed as GLP-1(7-36) amide).
Regarding “GLP-1(7-37) (HAEGTFTSDVSSYLEGQAAKEFIAWLVKGRG; Glucagon-like peptide 1(7-37); UniProt P01275 98-128, looked up) [GLP-1 fragment, residues 7 to 37; formula I when X is Gly--OH]”, the insulinotropic action result in test [4] is given as “has been demonstrated”.
